According to patent publication US12240813B2, “Deuterated tryptamine derivatives and methods of use” (priority 2020, dated 2025):

Tests used:
rat liver microsomes = assay: Metabolic stability in rat liver microsomes (RLM); conditions: RLM; for RLM, % (half-life as % vs. the related nondeuterated compound): values in square brackets are within 10% difference (assay's accuracy), no deuteration effect; for RLM (metabolized or not): last assay time point 120 min
hrMAO-A = biological target: T1, hrMAO-A (Homo sapiens, UniProt P21397); assay: Metabolic stability in the presence of hrMAO-A; type: in vitro ADME; conditions: MAO-A; values in square brackets are within 10% difference (assay's accuracy), no deuteration effect
T1 construct: purchased XenoTech Lot #8213001
T1 sequence (P21397 1-527): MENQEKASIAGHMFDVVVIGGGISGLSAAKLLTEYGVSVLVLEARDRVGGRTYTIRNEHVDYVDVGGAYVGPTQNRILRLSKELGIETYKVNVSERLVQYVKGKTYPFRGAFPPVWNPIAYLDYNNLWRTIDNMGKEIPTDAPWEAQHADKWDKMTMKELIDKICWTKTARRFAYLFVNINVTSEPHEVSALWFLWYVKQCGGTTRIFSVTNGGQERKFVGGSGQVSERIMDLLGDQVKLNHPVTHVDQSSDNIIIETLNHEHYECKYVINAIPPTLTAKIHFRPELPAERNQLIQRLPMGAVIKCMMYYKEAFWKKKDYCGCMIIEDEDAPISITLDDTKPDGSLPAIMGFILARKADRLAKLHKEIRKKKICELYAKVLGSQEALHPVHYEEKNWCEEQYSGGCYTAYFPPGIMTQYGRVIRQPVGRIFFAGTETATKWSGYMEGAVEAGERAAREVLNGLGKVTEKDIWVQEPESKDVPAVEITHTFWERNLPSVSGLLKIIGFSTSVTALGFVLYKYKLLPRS
Description: The reaction mixture was prepared as described below. The co-dosed TAs were added into the reaction mixture at a final concentration of 1 microM each. The positive control, kynuramine (25 microM), was run simultaneously with the TAs in a separate reaction. The reaction mixture (without TAs or kynuramine) was equilibrated in a shaking water bath at 37° C. for 5 minutes. The reaction was initiated by the addition of the TAs or kynuramine, and the mixture was incubated in a shaking water bath at 37° C. Aliquots (100 microL) of the TA reaction mixture were withdrawn at 0, 5, 10, 20, 30, 60, and 120 minutes. Aliquots (100 microL) of the positive control reaction mixture were withdrawn at 0 and 30 minutes. TA and kynuramine samples were immediately combined with 100 microL of ice-cold 100% MeCN containing 0.1% formic acid and IS to terminate the reaction. The samples were then mixed and centrifuged to precipitate proteins. All TA samples were assayed by LC-HRAMS. The PARR (analyte to IS) at each time point was compared to the PARR at time 0 to determine the percent remaining at each time point. Reaction composition: hrMAO 0.02 mg/mL; Potassium Phosphate, pH 7.4 100 mM; Magnesium Chloride 5 mM; Test Articles (each) 1 microM.

[2H]C([2H])(c1c[nH]c2ccccc12)C([2H])([2H])N(CC=C)CC=C
RLM, % (half-life as % vs. the related nondeuterated compound) (rat liver microsomes): [106] %

[2H]C([2H])([2H])C([2H])([2H])NC([2H])([2H])C([2H])([2H])c1c[nH]c2ccccc12
MAO, % (half-life as % vs. the related nondeuterated compound) (hrMAO-A): 166% | RLM, % (half-life as % vs. the related nondeuterated compound) (rat liver microsomes): 159%

[2H]C([2H])(Cc1c[nH]c2ccccc12)NC([2H])([2H])C([2H])([2H])[2H]
MAO, % (half-life as % vs. the related nondeuterated compound) (hrMAO-A): 170% | RLM, % (half-life as % vs. the related nondeuterated compound) (rat liver microsomes): 151%

[2H]C([2H])([2H])C([2H])([2H])NC([2H])([2H])C([2H])([2H])c1c[nH]c2cccc(O)c12
RLM, % (half-life as % vs. the related nondeuterated compound) (rat liver microsomes): [93] %

[2H]c1[nH]c2c([2H])c([2H])c(OC)c([2H])c2c1CCN(CC)CC
RLM, % (half-life as % vs. the related nondeuterated compound) (rat liver microsomes): 172%

[2H]C([2H])(c1c[nH]c2ccccc12)C([2H])([2H])N(CC)CC
RLM, % (half-life as % vs. the related nondeuterated compound) (rat liver microsomes): [105] %

[2H]C([2H])(c1c[nH]c2ccc(OC)cc12)C([2H])([2H])N(CC)CC
RLM, % (half-life as % vs. the related nondeuterated compound) (rat liver microsomes): [95] %

[2H]C([2H])(c1c[nH]c2ccc(O)cc12)C([2H])([2H])N(CC)CC
RLM, % (half-life as % vs. the related nondeuterated compound) (rat liver microsomes): [106] %

[2H]c1ccc2[nH]c([2H])c(CCN([2H])CC)c2c1O
RLM (metabolized or not) (rat liver microsomes): R

[2H]C([2H])(NCC)C([2H])([2H])c1c[nH]c2ccccc12
MAO, % (half-life as % vs. the related nondeuterated compound) (hrMAO-A): 140% | RLM, % (half-life as % vs. the related nondeuterated compound) (rat liver microsomes): 142%

[2H]C([2H])(Cc1c[nH]c2ccccc12)NCC
MAO, % (half-life as % vs. the related nondeuterated compound) (hrMAO-A): 145% | RLM, % (half-life as % vs. the related nondeuterated compound) (rat liver microsomes): 138%

[2H]C([2H])(NCC)C([2H])([2H])c1c[nH]c2cccc(O)c12
RLM, % (half-life as % vs. the related nondeuterated compound) (rat liver microsomes): [94] %

[2H]C([2H])([2H])Oc1ccc2[nH]cc(C([2H])([2H])C([2H])([2H])N(C([2H])([2H])[2H])C([2H])([2H])[2H])c2c1
MAO, % (half-life as % vs. the related nondeuterated compound) (hrMAO-A): 372% | RLM, % (half-life as % vs. the related nondeuterated compound) (rat liver microsomes): 299%

[2H]C([2H])([2H])NC([2H])([2H])C([2H])([2H])c1c[nH]c2ccccc12
MAO, % (half-life as % vs. the related nondeuterated compound) (hrMAO-A): 711% | RLM, % (half-life as % vs. the related nondeuterated compound) (rat liver microsomes): 214%

[2H]C([2H])([2H])NC([2H])([2H])Cc1c[nH]c2ccccc12
MAO, % (half-life as % vs. the related nondeuterated compound) (hrMAO-A): 744% | RLM, % (half-life as % vs. the related nondeuterated compound) (rat liver microsomes): 207%

[2H]C([2H])([2H])NC([2H])([2H])C([2H])([2H])c1c[nH]c2cccc(O)c12
MAO, % (half-life as % vs. the related nondeuterated compound) (hrMAO-A): 459% | RLM, % (half-life as % vs. the related nondeuterated compound) (rat liver microsomes): 173%

[2H]C([2H])([2H])NC([2H])([2H])Cc1c[nH]c2cccc(O)c12
MAO, % (half-life as % vs. the related nondeuterated compound) (hrMAO-A): 466% | RLM, % (half-life as % vs. the related nondeuterated compound) (rat liver microsomes): 163%

[2H]C([2H])(c1c[nH]c2ccccc12)C([2H])([2H])N(C)CC
MAO, % (half-life as % vs. the related nondeuterated compound) (hrMAO-A): 162% | RLM, % (half-life as % vs. the related nondeuterated compound) (rat liver microsomes): 131%

[2H]C([2H])(Cc1c[nH]c2ccccc12)N(C)CC
MAO, % (half-life as % vs. the related nondeuterated compound) (hrMAO-A): 168% | RLM, % (half-life as % vs. the related nondeuterated compound) (rat liver microsomes): 121%

[2H]C([2H])(c1c[nH]c2ccc(OC)cc12)C([2H])([2H])N(C)CC
MAO, % (half-life as % vs. the related nondeuterated compound) (hrMAO-A): 132% | RLM, % (half-life as % vs. the related nondeuterated compound) (rat liver microsomes): 115%

[2H]C([2H])(Cc1c[nH]c2ccc(OC)cc12)N(C)CC
MAO, % (half-life as % vs. the related nondeuterated compound) (hrMAO-A): 126% | RLM, % (half-life as % vs. the related nondeuterated compound) (rat liver microsomes): 117%

[2H]C([2H])(c1c[nH]c2ccc(O)cc12)C([2H])([2H])N(C)CC
MAO, % (half-life as % vs. the related nondeuterated compound) (hrMAO-A): 179% | RLM, % (half-life as % vs. the related nondeuterated compound) (rat liver microsomes): 144%

[2H]C([2H])(Cc1c[nH]c2ccc(O)cc12)N(C)CC
MAO, % (half-life as % vs. the related nondeuterated compound) (hrMAO-A): 173% | RLM, % (half-life as % vs. the related nondeuterated compound) (rat liver microsomes): 132%

[2H]C([2H])(c1c[nH]c2cccc(OC)c12)C([2H])([2H])N(C)CC
MAO, % (half-life as % vs. the related nondeuterated compound) (hrMAO-A): 291% | RLM, % (half-life as % vs. the related nondeuterated compound) (rat liver microsomes): 161%

[2H]C([2H])(Cc1c[nH]c2cccc(OC)c12)N(C)CC
MAO, % (half-life as % vs. the related nondeuterated compound) (hrMAO-A): 281% | RLM, % (half-life as % vs. the related nondeuterated compound) (rat liver microsomes): 163%

[2H]C([2H])(c1c[nH]c2ccc(OC)cc12)C([2H])([2H])N(C)C
MAO, % (half-life as % vs. the related nondeuterated compound) (hrMAO-A): 229% | RLM, % (half-life as % vs. the related nondeuterated compound) (rat liver microsomes): 184%

[2H]C([2H])(c1c[nH]c2ccc(O)cc12)C([2H])([2H])N(C)C
MAO, % (half-life as % vs. the related nondeuterated compound) (hrMAO-A): 418% | RLM, % (half-life as % vs. the related nondeuterated compound) (rat liver microsomes): 136%

[2H]C([2H])(Cc1c[nH]c2ccc(O)cc12)N(C)C
MAO, % (half-life as % vs. the related nondeuterated compound) (hrMAO-A): 415% | RLM, % (half-life as % vs. the related nondeuterated compound) (rat liver microsomes): 133%

[2H]C([2H])(c1c[nH]c2cccc(OC)c12)C([2H])([2H])N(C)C
MAO, % (half-life as % vs. the related nondeuterated compound) (hrMAO-A): 325% | RLM, % (half-life as % vs. the related nondeuterated compound) (rat liver microsomes): 190%

[2H]C([2H])(Cc1c[nH]c2cccc(OC)c12)N(C)C
MAO, % (half-life as % vs. the related nondeuterated compound) (hrMAO-A): 335% | RLM, % (half-life as % vs. the related nondeuterated compound) (rat liver microsomes): 185%

[2H]C([2H])(NC)C([2H])([2H])c1c[nH]c2cccc(O)c12
MAO, % (half-life as % vs. the related nondeuterated compound) (hrMAO-A): 396% | RLM, % (half-life as % vs. the related nondeuterated compound) (rat liver microsomes): 160%

[2H]C([2H])(Cc1c[nH]c2cccc(O)c12)NC
MAO, % (half-life as % vs. the related nondeuterated compound) (hrMAO-A): 395% | RLM, % (half-life as % vs. the related nondeuterated compound) (rat liver microsomes): 154%

[2H]c1[nH]c2c([2H])c([2H])c([2H])c([2H])c2c1CCN([2H])C(C)C
RLM, % (half-life as % vs. the related nondeuterated compound) (rat liver microsomes): 145%

[2H]c1[nH]c2c([2H])c([2H])c([2H])c(O)c2c1CCN([2H])C(C)C
RLM, % (half-life as % vs. the related nondeuterated compound) (rat liver microsomes): 131%

[2H]C([2H])(NC(C)C)C([2H])([2H])c1c[nH]c2ccccc12
RLM, % (half-life as % vs. the related nondeuterated compound) (rat liver microsomes): [106] %

[2H]C([2H])(NC(C)C)C([2H])([2H])c1c[nH]c2cccc(O)c12
RLM, % (half-life as % vs. the related nondeuterated compound) (rat liver microsomes): [108] %

[2H]c1[nH]c2c([2H])c([2H])c([2H])c(O)c2c1CCN(C(C)C)C(C)C
RLM, % (half-life as % vs. the related nondeuterated compound) (rat liver microsomes): 167%

[2H]C([2H])(c1c[nH]c2cccc(O)c12)C([2H])([2H])N(C(C)C)C(C)C
RLM, % (half-life as % vs. the related nondeuterated compound) (rat liver microsomes): [97] %

C=CCN(CC=C)CCc1c[nH]c2ccccc12 [reference compound]
RLM (metabolized or not) (rat liver microsomes): R

C=CCNCCc1c[nH]c2ccccc12 [reference compound]
RLM (metabolized or not) (rat liver microsomes): R

CCN(CC)CCc1c[nH]c2ccccc12 [reference compound]
RLM (metabolized or not) (rat liver microsomes): R

CCN(CC)CCc1c[nH]c2ccc(OC)cc12 [reference compound]
RLM (metabolized or not) (rat liver microsomes): R

CCN(CC)CCc1c[nH]c2ccc(O)cc12 [reference compound]
RLM (metabolized or not) (rat liver microsomes): R

CCN(CC)CCc1c[nH]c2cccc(OC)c12 [reference compound]
RLM (metabolized or not) (rat liver microsomes): R

CCNCCc1c[nH]c2cccc(O)c12 [reference compound]
RLM (metabolized or not) (rat liver microsomes): R

CC(C)NCCc1c[nH]c2ccccc12 [reference compound]
RLM (metabolized or not) (rat liver microsomes): R

CC(C)NCCc1c[nH]c2cccc(O)c12 [reference compound]
RLM (metabolized or not) (rat liver microsomes): R

CC(C)N(CCc1c[nH]c2cccc(O)c12)C(C)C [reference compound]
RLM (metabolized or not) (rat liver microsomes): R
